Reference: US11339120B2, “Phenyl derivatives as cannabinoid receptor 2 agonists” (priority 2015, dated 2022)
Like-named read-outs stand apart in the source and are kept apart here.

Experiments:
[1] = molecular target: T1, human CB1 receptors (Homo sapiens, UniProt P21554); assay: functional cAMP assay, CHO cells expressing human CB1; format: cell-based
T1 construct: expressed in transfected cells; host or cells: CHO cells
In short: (§1)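 CHO cells with human CB1 or CB2 were switched to Krebs Ringer bicarbonate buffer with 1 mM IBMX for 30 min at 30 °C, then given compound for 30 min at 30 °C. cAMP was measured by time-resolved FRET against a cAMP standard curve, and EC50 values were calculated.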

[2] = molecular target: T2, human CB2 receptors (Homo sapiens, UniProt P34972); assay: functional cAMP assay, CHO cells expressing human CB2; format: cell-based
T2 construct: expressed in transfected cells; host or cells: CHO cells
In short: as §1

[3] = functional cAMP assay, CHO cells expressing human CB2, read-out: Human CB2 EC50

T1 sequence (P21554 whole entry): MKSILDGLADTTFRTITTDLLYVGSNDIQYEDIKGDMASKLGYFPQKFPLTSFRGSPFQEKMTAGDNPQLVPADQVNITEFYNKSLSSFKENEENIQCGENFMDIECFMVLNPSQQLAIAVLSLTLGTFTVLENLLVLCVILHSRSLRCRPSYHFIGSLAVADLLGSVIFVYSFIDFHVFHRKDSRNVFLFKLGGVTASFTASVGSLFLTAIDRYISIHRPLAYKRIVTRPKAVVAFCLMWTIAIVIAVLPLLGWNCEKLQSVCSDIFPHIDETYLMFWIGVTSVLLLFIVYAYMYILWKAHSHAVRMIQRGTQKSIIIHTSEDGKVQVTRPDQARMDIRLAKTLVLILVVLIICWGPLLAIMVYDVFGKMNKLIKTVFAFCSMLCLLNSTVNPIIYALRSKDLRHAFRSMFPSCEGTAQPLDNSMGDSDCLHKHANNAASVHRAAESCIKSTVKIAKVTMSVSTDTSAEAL
T2 sequence (P34972 whole entry): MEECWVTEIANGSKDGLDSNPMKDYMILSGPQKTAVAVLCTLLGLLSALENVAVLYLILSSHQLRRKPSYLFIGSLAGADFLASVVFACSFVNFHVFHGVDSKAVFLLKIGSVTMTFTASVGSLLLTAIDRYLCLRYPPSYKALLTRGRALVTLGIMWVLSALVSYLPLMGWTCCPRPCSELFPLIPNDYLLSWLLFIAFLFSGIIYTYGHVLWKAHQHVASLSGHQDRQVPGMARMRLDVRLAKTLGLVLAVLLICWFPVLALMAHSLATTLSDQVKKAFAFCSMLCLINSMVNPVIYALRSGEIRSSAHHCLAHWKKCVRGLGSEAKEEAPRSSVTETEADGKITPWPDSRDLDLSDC

SMILES | EC50 [1] [µM] | EC50 [2] [µM] | EC50 [2, 3] [µM]
C[C@@](CC(N)=O)(NC(=O)c1ccc(C2CC2)c(OCCF)c1)C1CC1 [Example 54, N-[(2S)-4-Amino-2-cyclopropyl-4-oxobutan-2-yl]-4-cyclopropyl-3-(2-fluoroethoxy)benzamide] | > 10 | 0.231 | –
CC(C)(NC(=O)c1ccc(N2CC(F)(F)C2)c(OCC2CC2)c1)c1noc(N)n1 [Example 11, N-[2-(5-Amino-1,2,4-oxadiazol-3-yl)propan-2-yl]-3-(cyclopropylmethoxy)-4-(3,3-difluoroazetidin-1-yl)benzamide] | > 10 | 0.0987 | –
C[C@@](CC(N)=O)(NC(=O)c1ccc(C2CC2)c(OCC(F)(F)F)c1)C1CC1 [Example 51, N-[(2S)-4-Amino-2-cyclopropyl-4-oxobutan-2-yl]-4-cyclopropyl-3-(2,2,2-trifluoroethoxy)benzamide] | > 10 | 0.0808 | –
Cc1nc(C(C)(C)NC(=O)c2ccc(C)c(OCC3CC3)c2)no1 [Example 2, 3-(Cyclopropylmethoxy)-4-methyl-N-[2-(5-methyl-1,2,4-oxadiazol-3-yl)propan-2-yl]benzamide] | > 10 | – | 0.492
Cc1nc([C@@](C)(CS(C)(=O)=O)NC(=O)c2ccc(C3CC3)c(OCC3CC3)c2)no1 [Example 20, 4-Cyclopropyl-3-(cyclopropylmethoxy)-N-[(2S)-1-(methanesulfonyl)-2-(5-methyl-1,2,4-oxadiazol-3-yl)propan-2-yl]benzamide] | > 10 | 0.0313 | –
CCC(CC)(NC(=O)c1ccc(C2CC2)c(OCC2CC2)c1)C(=O)N1CC(F)(F)C1 [Example 9, 4-Cyclopropyl-3-(cyclopropylmethoxy)-N-[3-(3,3-difluoroazetidine-1-carbonyl)pentan-3-yl]benzamide] | > 10 | 0.00756 | –
Cn1nccc1-c1cc(C(=O)N2CC(F)(F)C[C@H]2C(N)=O)ccc1C1CC1 [Example 55, 1-[4-Cyclopropyl-3-(1-methyl-1H-pyrazol-5-yl)benzoyl]-4,4-difluoro-L-prolinamide] | > 10 | – | 1.91
CCOC(=O)C(CC)(CC)NC(=O)c1ccc(C2CC2)c(OCC2CC2)c1 [Example 7, Ethyl 2-[4-cyclopropyl-3-(cyclopropylmethoxy)benzamido]-2-ethylbutanoate] | > 10 | 0.00144 | –
Cc1nc([C@](C)(CC2CC2)NC(=O)c2ccc(C3CC3)c(OCC(F)(F)F)c2)no1 [Example 26, (+)-4-Cyclopropyl-N-[1-cyclopropyl-2-(5-methyl-1,2,4-oxadiazol-3-yl)propan-2-yl]-3-(2,2,2-trifluoroethoxy)benzamide] | > 10 | 0.0363 | –
CC1(C(CC(N)=O)NC(=O)c2ccc(C3CC3)c(OCC(F)(F)F)c2)COC1 (stereo not drawn) [Example 69, N-[3-Amino-1-(3-methyloxetan-3-yl)-3-oxopropyl]-4-cyclopropyl-3-(2,2,2-trifluoroethoxy)benzamide] | > 10 | – | 1.18
Cc1nc([C@@](C)(CC2CC2)NC(=O)c2ccc(C3CC3)c(OCCF)c2)no1 [Example 33] | > 10 | 0.0594 | –
C[C@@](CC(N)=O)(NC(=O)c1ccc(C2CC2)c(-c2ccc(F)nc2)c1)C1CC1 [Example 53, N-[(2S)-4-Amino-2-cyclopropyl-4-oxobutan-2-yl]-4-cyclopropyl-3-(6-fluoropyridin-3-yl)benzamide] | > 10 | 0.184 | –
